From PubChem BioAssay (NCI)
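Method: 48-hour compound exposure of cells in 96-well plates, five concentrations, linear interpolation of endpoints. TGI: total growth inhibition.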

Experiments:
Assay in all cases: DTP human tumour cell line panel, 48 h
T-47D breast = system: T-47D breast
HCT-15 colon = system: HCT-15 colon
OVCAR-5 ovarian = system: OVCAR-5 ovarian
HOP-62 NSCLC = system: HOP-62 NSCLC
EKVX NSCLC = system: EKVX NSCLC
SF-295 CNS = system: SF-295 CNS
SR leukemia = system: SR leukemia
RXF 393 renal = system: RXF 393 renal
UACC-257 melanoma = system: UACC-257 melanoma
IGROV1 ovarian = system: IGROV1 ovarian

Structure (SMILES)	TGI (T-47D breast) [µM]	TGI (HCT-15 colon) [µM]	TGI (OVCAR-5 ovarian) [µM]	TGI (HOP-62 NSCLC) [µM]	TGI (EKVX NSCLC) [µM]	TGI (SF-295 CNS) [µM]	TGI (SR leukemia) [µM]	TGI (RXF 393 renal) [µM]	TGI (UACC-257 melanoma) [µM]	TGI (IGROV1 ovarian) [µM]
Oc1ccc(-c2nc(-c3cccnc3)c(-c3ccc(Cl)cc3)[nH]2)cc1	28.6	25.2	33.5	30.9	27.4	27.3	44.1	26.5	29.6	23
CCN(CC)C(=O)Cn1c(C)cc2ccccc21	> 100	> 100	> 100	> 100	> 100	> 100	> 100	> 100	> 100	> 100
COc1cccc(-c2ccc3c4c2O[C@H]2C(=O)CC[C@@]5(O)[C@@H](C3)N(CC3CC3)CC[C@]425)c1	41.6	29.3	35.7	35.4	41	32.6	37.8	21.8	43.2	44.2
CSc1ncnc2c1ncn2C1CC(Oc2ccc(C)cc2)C(COc2ccc(C)cc2)O1 (centres undefined)	> 100	> 100	> 100	> 100	> 100	> 100	> 100	–	> 100	> 100
COc1ccc2ccccc2c1/C=C/C(=O)c1ccccc1	8.32	> 35.8	22	9	12.1	15.6	2.55	3.88	16	16.2
CC(C)=CCC/C(C)=C/C=C/C(C)=C/C=C/C(C)=C/C=C/C=C(C)/C=C/C=C(C)/C=C/[C@H]1C(C(C)(C)O)CC[C@]1(C)O (some centres undefined)	> 100	51.8	> 100	40.8	> 100	> 100	54.4	45.4	59.2	49.5
O=C(NNC(=S)Nc1cccc(Cl)c1)c1cc(-c2ccccc2)nc2ccccc12	36.4	29.6	36	32.1	–	24.5	49.9	32.7	31.5	47
COc1cc(/C=C2\C(=O)N(c3ccccc3)C(c3ccccc3)S2(=O)=O)cc(OC)c1OC (centres undefined)	> 100	> 100	> 100	> 100	> 100	> 100	> 100	92.2	> 100	–
CC(C)(C)OC(=O)NC(Cc1ccc(OCc2ccccc2)cn1)C(=O)N1CCCCC1 (centres undefined)	33.9	> 100	> 100	> 100	> 100	> 100	93	65.3	47.3	> 100
CCOC(=O)c1cc(C(O)P2(=O)N(CC(C)(C)C)[C@@H]3CCCC[C@H]3N2CC(C)(C)C)cn1C(=O)OC(C)(C)C (some centres undefined)	> 100	36	41.6	28.1	55.6	32	25.6	26.6	28.7	18.1
c1ccc2c(c1)ccn2CCc1c[nH]c2ccccc12	> 10	> 10	> 10	> 10	> 10	> 10	> 10	> 10	> 10	> 10
Cc1ccc(SCC(CF)OC(C)n2cnc3c(=O)[nH]c(N)nc32)cc1 (centres undefined)	> 100	> 100	> 100	> 100	–	> 100	> 100	–	> 100	> 100
Cc1ccc2c(c1)C(C(=O)N[C@@H]1C(=O)N3[C@@H]1SC(C)(C)[C@@H]3C(=O)O)OCCC2 (some centres undefined)	> 100	> 100	> 100	> 100	> 100	> 100	> 100	> 100	> 100	> 100
CCN(CC)CCNc1nc2ccc([N+](=O)[O-])cc2[n+]([O-])n1	40.6	39.8	31.7	–	–	82.1	> 100	> 100	31.2	38.3
Cc1ccc([N+](=O)[O-])cc1S(=O)(=O)Nc1ccc(C2=NNC(c3ccccc3)C2)cc1 (centres undefined)	28.5	62.1	> 100	27.2	> 100	21.7	48.7	30.4	40.2	> 100
N=C(N)c1ccc(C(NC(=O)CNS(=O)(=O)c2ccc3ccccc3c2)P(=O)(Oc2ccccc2)Oc2ccccc2)cc1 (centres undefined)	> 100	> 100	> 100	> 100	–	–	> 100	> 100	> 100	> 100
CC1=NNC(N)=N/C1=C\C(Sc1ccc(Cl)cc1)c1ccc([N+](=O)[O-])cc1 (centres undefined)	> 100	> 100	> 100	> 100	> 100	> 100	> 100	> 100	> 100	> 100
O=c1[nH]nc(-c2ccccc2)c2[nH]c3c4ccccc4ccc3c12	> 100	> 100	–	> 100	> 100	–	> 100	> 100	> 100	> 100
COc1cc(/C=C2/C[C@H]3[C@@H]4CC=C5C[C@@H](O)CC[C@]5(C)[C@H]4CC[C@]3(C)NC2=O)cc(OC)c1OC	> 100	> 59.5	> 75.7	> 89.1	> 92.8	> 65.3	> 100	42.3	> 71.5	38.1
COCN(CCC1=CCCCC1)C(=O)OC	> 100	> 100	> 100	> 100	> 100	> 100	> 100	> 100	> 100	> 100
C[C@]12CCC(=O)O[C@H]1CCCCO2	> 100	> 100	> 100	> 100	> 100	> 100	> 100	> 100	> 100	> 100
